DBAASP
Values after ≈ are worked out from the molar mass of the structure shown.

Assays:
Assay in all cases: ≥ marks a high value that may be exact or a test limit, other limits are often not marked, values filed in µg/mL are converted to µM
[1] = tested on: Pseudomonas aeruginosa ATCC 13388
[2] = tested on: Salmonella enterica subsp. enterica serovar Typhimurium ATCC 14028
[3] = tested on: Staphylococcus aureus ATCC 6538
[4] = tested on: Klebsiella pneumoniae ATCC 10031
[5] = tested on: Escherichia coli ATCC 11219
[6] = tested on: Staphylococcus aureus ATCC 29213
[7] = tested on: Enterococcus faecalis ATCC 29212
[8] = tested on: Klebsiella pneumoniae ATCC 13883
[9] = tested on: Pseudomonas aeruginosa ATCC 27853
[10] = tested on: Escherichia coli ATCC 25922
[11] = tested on: Candida albicans ATCC 14053
[12] = tested on: Pseudomonas fluorescens NCIMB 9046
[13] = tested on: Staphylococcus aureus NCTC 8325-4
[14] = tested on: Cronobacter sakazakii ATCC BAA-894
[15] = tested on: Staphylococcus aureus RN4220
[16] = tested on: Cronobacter muytjensii ATCC 51329
[17] = tested on: Escherichia coli NCIMB 11843
[18] = tested on: Staphylococcus aureus Newman
[19] = tested on: Cronobacter sakazakii DPC 6440
[20] = tested on: Staphylococcus aureus SA113
[21] = tested on: Staphylococcus aureus RF122
[22] = tested on: Cronobacter sakazakii DSM 4485
[23] = tested on: Salmonella enterica subsp. enterica serovar Typhimurium LT2
[24] = tested on: Klebsiella pneumoniae NCIMB 13218
[25] = tested on: Escherichia coli KCTC 1682
[26] = tested on: Pseudomonas aeruginosa KCTC 1637
[27] = tested on: Staphylococcus epidermidis KCTC 1917
[28] = tested on: Salmonella typhimurium KCTC 1926
[29] = tested on: Staphylococcus aureus KCTC 1621
[30] = tested on: Bacillus subtilis KCTC 3068
Escherichia coli JM109 = tested on: Escherichia coli JM109
[31] = tested on: Lactococcus lactis AS1.1690
[32] = tested on: Enterococcus faecium CGMCC 1.2334
Escherichia coli AS1.349 = tested on: Escherichia coli AS1.349
[33] = tested on: Staphylococcus aureus AS1.72
[34] = tested on: Klebsiella pneumoniae subsp. pneumoniae CGMCC 1.176
[35] = tested on: Enterobacter cloacae CGMCC 1.58
[36] = tested on: Enterococcus faecalis CGMCC 1.595
Bacillus cereus AS1.126 = tested on: Bacillus cereus AS1.126
[37] = tested on: Klebsiella aerogenes CGMCC 1.876
[38] = tested on: Pseudomonas aeruginosa CGMCC 1.860

For `CC[C@H](C)[C@H](NC(=O)CN)C(=O)N[C@@H](CCCCN)C(=O)N[C@@H](CC(=O)O)C(=O)N[C@H](C(=O)N[C@@H](CC(C)C)C(=O)N[C@@H](CCCCN)C(=O)N[C@@H](Cc1ccc(O)cc1)C(=O)NCC(=O)N[C@@H](CCCCN)C(=O)N1CCC[C@H]1C(=O)N[C@@H](CO)C(N)=O)[C@@H](C)CC` [GIKDILKYGKPS], the MIC [1] was 30 µM (≈ 39.5 µg/mL), the MIC [2] was 5 µM (≈ 6.59 µg/mL) and the MIC [3] was 15 µM (≈ 19.8 µg/mL). It also gave an MIC [4] of 10 µM (≈ 13.2 µg/mL) and an MIC [5] of 10 µM (≈ 13.2 µg/mL).

`CC[C@H](C)[C@H](NC(=O)[C@H](CCCCN)NC(=O)[C@H](CO)NC(=O)[C@H](C)NC(=O)[C@H](Cc1c[nH]c2ccccc12)NC(=O)CN)C(=O)NCC(=O)N[C@@H](CCC(N)=O)C(=O)N[C@H](C(=O)N[C@@H](CC(C)C)C(=O)NCC(=O)N[C@@H](CCCCN)C(=O)N[C@H](C(=O)N[C@@H](C)C(=O)N[C@@H](CCCCN)C(=O)N[C@H](C(=O)NCC(=O)N[C@@H](CC(C)C)C(=O)N[C@@H](CCCCN)C(=O)N[C@@H](CCC(=O)O)C(=O)N[C@@H](CC(C)C)C(=O)N[C@H](C(=O)N[C@@H](CCC(N)=O)C(=O)N1CCC[C@H]1C(=O)N[C@@H](CCCCN)C(N)=O)[C@@H](C)CC)C(C)C)[C@@H](C)CC)[C@@H](C)O` [GWASKIGQTLGKIAKVGLKELIQPK] was tested, and the MIC [6] was 133 µM (≈ 353 µg/mL), the MIC [7] was 133 µM (≈ 353 µg/mL) and the MIC [8] was ≥ 33 µM. For the same compound, the MIC [9] was 66.4 µM (≈ 177 µg/mL), the MIC [10] was 8.36 µM (≈ 22.3 µg/mL) and the MIC [11] was ≥ 133 µM.

`CC[C@H](C)[C@H](NC(=O)CNC(C)=O)C(=O)N[C@@H](CCCN=C(N)N)C(=O)N[C@@H](CCCN=C(N)N)C(=O)N[C@H](C(=O)N[C@@H](CC(C)C)C(=O)N[C@@H](CCCCN)C(=O)N[C@@H](Cc1ccc(O)cc1)C(=O)NCC(=O)N[C@@H](CCCCN)C(=O)N[C@@H](CCCN=C(N)N)C(=O)N[C@@H](CO)C(N)=O)[C@@H](C)CC` [GIRRILKYGKRS] gave an MIC [1] of 20 µM (≈ 29.8 µg/mL), an MIC [2] of 20 µM (≈ 29.8 µg/mL) and an MIC [3] of 2.2 µM (≈ 3.27 µg/mL). It also gave an MIC [4] of 5 µM (≈ 7.44 µg/mL) and an MIC [5] of 5 µM (≈ 7.44 µg/mL).

`CC[C@H](C)[C@H](N)C(=O)N[C@@H](CCCCN)C(=O)N[C@@H](Cc1cnc[nH]1)C(=O)N[C@@H](CCC(N)=O)C(=O)NCC(=O)N[C@@H](CC(C)C)C(=O)N1CCC[C@H]1C(=O)N[C@@H](CCC(N)=O)C(=O)N[C@@H](CCC(=O)O)C(=O)N[C@@H](CC(=O)O)C(=O)O` [IKHQGLPQED] was tested, and the MIC [12] was ≥ 1250 µM, the MIC [13] was ≥ 1250 µM and the MIC [14] was ≥ 625 µM. For the same compound, the MIC [15] was ≥ 1250 µM, the MIC [16] was ≥ 2500 µM and the MIC [17] was ≥ 1250 µM. For the same compound, the MIC [18] was ≥ 1250 µM, the MIC [19] was ≥ 625 µM and the MIC [20] was ≥ 625 µM. The MIC [21] was ≥ 1250 µM, the MIC [22] was ≥ 625 µM and the MIC [23] was ≥ 2500 µM. For the same compound, the MIC [24] was ≥ 1250 µM.

`CC[C@H](C)[C@H](NC(=O)CN)C(=O)N[C@@H](C)C(=O)N[C@@H](CC(=O)O)C(=O)N[C@H](C(=O)N[C@@H](CC(C)C)C(=O)N[C@@H](CCCCN)C(=O)N[C@@H](Cc1ccc(O)cc1)C(=O)NCC(=O)N[C@@H](CCCCN)C(=O)N1CCC[C@H]1C(=O)N[C@@H](CO)C(N)=O)[C@@H](C)CC` [GIADILKYGKPS] gave an MIC [1] of 15 µM (≈ 18.9 µg/mL), an MIC [2] of 10 µM (≈ 12.6 µg/mL) and an MIC [3] of 20 µM (≈ 25.2 µg/mL). The MIC [4] was 30 µM (≈ 37.8 µg/mL) and the MIC [5] was ≥ 50 µM.

For `CC(C)C[C@H](NC(=O)[C@@H](N)C(C)C)C(=O)N[C@@H](CC(N)=O)C(=O)N[C@@H](CCC(=O)O)C(=O)N[C@@H](CC(N)=O)C(=O)N[C@@H](C)C(=O)N[C@@H](C)C(=O)N[C@@H](CCCN=C(N)N)C(=O)O` [VLNENAAR], the MIC [12] was ≥ 1250 µM, the MIC [13] was ≥ 625 µM and the MIC [14] was ≥ 1250 µM. The MIC [15] was ≥ 1250 µM, the MIC [9] was 32 µM (≈ 28.4 µg/mL) and the MIC [16] was ≥ 1250 µM. For the same compound, the MIC [17] was ≥ 2500 µM, the MIC [18] was ≥ 1250 µM and the MIC [19] was ≥ 1250 µM. The MIC [20] was ≥ 1250 µM, the MIC [21] was ≥ 1250 µM and the MIC [22] was ≥ 625 µM. For the same compound, the MIC [23] was ≥ 2500 µM and the MIC [24] was ≥ 2500 µM.

With `CC[C@H](C)[C@H](N)C(=O)N[C@@H](CC(C)C)C(=O)N1CCC[C@H]1C(=O)N[C@@H](Cc1c[nH]c2ccccc12)C(=O)N[C@@H](CCCCN)C(=O)N[C@@H](Cc1c[nH]c2ccccc12)C(=O)N[C@@H](CCCCN)C(=O)N[C@@H](Cc1c[nH]c2ccccc12)C(=O)N[C@@H](Cc1c[nH]c2ccccc12)C(=O)N1CCC[C@H]1C(=O)N[C@@H](Cc1c[nH]c2ccccc12)C(=O)N[C@@H](CCCN=C(N)N)C(=O)N[C@@H](CCCN=C(N)N)C(N)=O` [ILPWKWKWWPWRR] the MIC [25] was 5.16 µM (≈ 10 µg/mL), the MIC [26] was 10.3 µM (≈ 20 µg/mL) and the MIC [27] was 5.16 µM (≈ 10 µg/mL). The MIC [28] was 5.16 µM (≈ 10 µg/mL), the MIC [29] was 2.58 µM (≈ 5 µg/mL) and the MIC [30] was 2.58 µM (≈ 5 µg/mL). For the same compound, the MIC (Escherichia coli JM109) was 1 µM (≈ 1.94 µg/mL).

Compound `NC(N)=NCCC[C@H](NC(=O)[C@H](CCCN=C(N)N)NC(=O)[C@H](Cc1c[nH]c2ccccc12)NC(=O)[C@H](Cc1ccccc1)NC(=O)[C@H](CCCN=C(N)N)NC(=O)[C@H](CCCN=C(N)N)NC(=O)[C@@H](N)Cc1c[nH]c2ccccc12)C(=O)O` [WRRFWRR] has an MIC [31] of 12.5 µM (≈ 14.5 µg/mL), an MIC [32] of 25 µM (≈ 29.1 µg/mL) and an MIC (Escherichia coli AS1.349) of 25 µM (≈ 29.1 µg/mL). For the same compound, the MIC [33] was ≥ 50 µM, the MIC [34] was ≥ 100 µM and the MIC [35] was ≥ 100 µM. For the same compound, the MIC [36] was 25 µM (≈ 29.1 µg/mL), the MIC (Bacillus cereus AS1.126) was 1.56 µM (≈ 1.81 µg/mL) and the MIC [37] was ≥ 100 µM. For the same compound, the MIC [38] was 12.5 µM (≈ 14.5 µg/mL).
